Results reported in patent US7459470B2, “N-oxide anthranylamide derivatives and their use as medicaments” (Schering AG, priority 2001, dated 2008).

Legend:
[1] = target: VEGFR II (KDR) (Homo sapiens, UniProt P35968); assay: Inhibition of the KDR kinase activity (33P-ATP, poly-(Glu4Tyr) filter assay); format: biochemical; details: phosphate incorporation into poly-(Glu4Tyr), 10 minutes at room temperature
Protocol: • Stock Solutions • Stock solution A: 3 mmol of ATP in water, pH 7.0 (−70° C.) • Stock solution B: g-33P-ATP 1 mCi/100 μl • Stock solution C: poly-(Glu4 Tyr). 10 mg/ml in water Solution for Dilutions • Substrate solvent: 10 mmol of DTT, 10 mmol of manganese chloride, 100 mmol of magnesium chloride • Enzyme solution: 120 mmol of tris/HCl, pH 7.5, 10 μM of sodium vanadium oxide Sample Application 1 Inhibition of the KDR- and FLT-1 Kinase Activity in the Presence of the Compounds According to the Invention
In a microtiter plate (without protein binding) that tapers to a point, 10 μl of substrate mix (10 μl of volume of ATP stock solution A+25 μCi of g-33P-ATP (about 2.5 μl of stock solution B)+30 μl of poly-(Glu4Tyr) stock solution C+1.21 ml of substrate solvent), 10 μl of inhibitor solution (substances corresponding to the dilutions, 3% DMSO in substrate solvent as a control) and 10 μl of enzyme solution (11.25 μg of enzyme stock solution (KDR or FLT-1 kinase) are added at 4° C. in 1.25 ml of enzyme solution (dilute). It is thoroughly mixed and incubated for 10 minutes at room temperature. Then, 10 μl of stop solution (250 mmol of EDTA, pH 7.0) is added, mixed, and 10 μl of the solution is transferred to a P 81 phosphocellulose filter. Then, it is washed several times in 0.1 M phosphoric acid. The filter paper is dried, coated with Meltilex and measured in a microbeta counter.
The IC50 values are determined from the inhibitor concentration, which is necessary to inhibit the phosphate incorporation to 50% of the uninhibited incorporation after removal of the blank reading (EDTA-stopped reaction).

[2] = target: T1, CYP2D6 (Homo sapiens, UniProt P10635); assay: Cytochrome P450 inhibition, isoenzyme 2D6; format: in vitro ADME; details: baculovirus/insect cell-expressed recombinant human CYP2D6, read-out: Inhibition of the Cytochrome P450 Isoenzymes IC50, 2D6
T1 construct: host or cells: baculovirus/insect cells
T1 sequence (P10635 whole entry): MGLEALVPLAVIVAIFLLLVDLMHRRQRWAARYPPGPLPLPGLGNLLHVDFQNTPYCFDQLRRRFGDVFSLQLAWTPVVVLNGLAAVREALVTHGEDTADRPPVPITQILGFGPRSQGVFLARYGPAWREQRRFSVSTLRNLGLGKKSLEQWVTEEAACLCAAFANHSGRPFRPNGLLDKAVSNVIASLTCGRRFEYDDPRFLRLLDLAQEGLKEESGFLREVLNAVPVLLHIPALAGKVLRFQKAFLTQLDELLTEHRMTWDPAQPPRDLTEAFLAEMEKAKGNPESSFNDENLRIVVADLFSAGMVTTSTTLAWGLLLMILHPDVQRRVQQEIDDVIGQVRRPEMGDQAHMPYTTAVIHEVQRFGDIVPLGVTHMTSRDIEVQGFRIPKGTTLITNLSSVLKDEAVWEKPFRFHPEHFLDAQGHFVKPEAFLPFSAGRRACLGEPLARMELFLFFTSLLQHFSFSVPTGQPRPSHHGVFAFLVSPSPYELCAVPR
Protocol: (§1) The Cytochrome P450 inhibition was performed according to the publication of Crespi et al. (Anal Biochem., 248, 188-190 (1997)) with use of baculovirus/insect cell-expressed, human Cytochrome P 450 isoenzymes (1A2, 2C9, 2C19, 2D6, 3A4).

[3] = target: T2, CYP1A2 (Homo sapiens, UniProt P05177); assay: Cytochrome P450 inhibition, isoenzyme 1A2; format: in vitro ADME; details: baculovirus/insect cell-expressed recombinant human CYP1A2, read-out: Inhibition of the Cytochrome P450 Isoenzymes IC50, 1A2
T2 construct: host or cells: baculovirus/insect cells
T2 sequence (P05177 1-516): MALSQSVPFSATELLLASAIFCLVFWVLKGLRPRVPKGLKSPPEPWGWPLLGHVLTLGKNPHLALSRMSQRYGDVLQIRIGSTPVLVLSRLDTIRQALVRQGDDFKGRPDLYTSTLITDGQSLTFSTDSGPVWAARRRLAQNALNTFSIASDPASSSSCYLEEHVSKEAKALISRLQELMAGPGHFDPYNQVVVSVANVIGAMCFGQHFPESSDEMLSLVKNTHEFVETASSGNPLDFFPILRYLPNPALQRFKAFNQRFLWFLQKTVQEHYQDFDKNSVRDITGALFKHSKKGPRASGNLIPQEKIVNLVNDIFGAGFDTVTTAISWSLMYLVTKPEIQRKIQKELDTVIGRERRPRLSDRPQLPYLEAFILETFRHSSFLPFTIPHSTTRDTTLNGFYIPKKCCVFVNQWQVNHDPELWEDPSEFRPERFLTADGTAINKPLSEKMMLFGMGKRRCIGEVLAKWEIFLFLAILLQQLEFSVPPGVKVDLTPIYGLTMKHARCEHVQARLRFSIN
Protocol: as §1

[4] = target: T3, CYP2C9 (Homo sapiens, UniProt P11712); assay: Cytochrome P450 inhibition, isoenzyme 2C9; format: in vitro ADME; details: baculovirus/insect cell-expressed recombinant human CYP2C9, read-out: Inhibition of the Cytochrome P450 Isoenzymes IC50, 2C9
T3 construct: host or cells: baculovirus/insect cells
T3 sequence (P11712 whole entry): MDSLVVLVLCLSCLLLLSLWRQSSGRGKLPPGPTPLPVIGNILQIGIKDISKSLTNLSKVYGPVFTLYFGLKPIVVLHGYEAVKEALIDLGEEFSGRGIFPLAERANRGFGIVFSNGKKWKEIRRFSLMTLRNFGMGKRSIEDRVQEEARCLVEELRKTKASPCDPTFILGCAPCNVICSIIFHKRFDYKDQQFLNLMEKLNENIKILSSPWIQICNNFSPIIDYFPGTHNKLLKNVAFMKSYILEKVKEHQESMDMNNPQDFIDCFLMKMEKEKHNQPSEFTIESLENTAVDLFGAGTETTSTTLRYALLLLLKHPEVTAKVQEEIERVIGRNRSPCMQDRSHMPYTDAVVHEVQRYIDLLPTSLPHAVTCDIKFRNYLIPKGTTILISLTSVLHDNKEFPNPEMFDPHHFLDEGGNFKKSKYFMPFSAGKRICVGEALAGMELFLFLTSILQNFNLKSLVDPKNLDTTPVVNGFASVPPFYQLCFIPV
Protocol: as §1

[5] = target: T4, CYP3A4 (Homo sapiens, UniProt P08684); assay: Cytochrome P450 inhibition, isoenzyme 3A4; format: in vitro ADME; details: baculovirus/insect cell-expressed recombinant human CYP3A4, read-out: Inhibition of the Cytochrome P450 Isoenzymes IC50, 3A4
T4 construct: host or cells: baculovirus/insect cells
T4 sequence (P08684 whole entry): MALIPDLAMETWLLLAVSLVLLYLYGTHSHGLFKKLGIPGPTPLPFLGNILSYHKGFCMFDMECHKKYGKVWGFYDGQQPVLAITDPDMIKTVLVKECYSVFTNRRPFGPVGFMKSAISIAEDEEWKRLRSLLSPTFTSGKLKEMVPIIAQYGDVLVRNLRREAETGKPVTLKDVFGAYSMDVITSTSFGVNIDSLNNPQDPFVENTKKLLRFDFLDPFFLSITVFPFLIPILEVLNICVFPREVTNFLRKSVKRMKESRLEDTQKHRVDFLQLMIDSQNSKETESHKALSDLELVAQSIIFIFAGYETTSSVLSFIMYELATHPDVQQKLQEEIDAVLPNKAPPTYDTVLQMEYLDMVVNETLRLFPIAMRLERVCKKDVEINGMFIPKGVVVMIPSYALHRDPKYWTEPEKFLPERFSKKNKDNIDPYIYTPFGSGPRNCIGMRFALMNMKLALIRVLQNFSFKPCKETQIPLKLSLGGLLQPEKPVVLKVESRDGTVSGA
Protocol: as §1

[6] = target: T5, CYP2C19 (Homo sapiens, UniProt P33261); assay: Cytochrome P450 inhibition, isoenzyme 2C19; format: in vitro ADME; details: baculovirus/insect cell-expressed recombinant human CYP2C19, read-out: Inhibition of the Cytochrome P450 Isoenzymes IC50, 2C19
T5 construct: host or cells: baculovirus/insect cells
T5 sequence (P33261 whole entry): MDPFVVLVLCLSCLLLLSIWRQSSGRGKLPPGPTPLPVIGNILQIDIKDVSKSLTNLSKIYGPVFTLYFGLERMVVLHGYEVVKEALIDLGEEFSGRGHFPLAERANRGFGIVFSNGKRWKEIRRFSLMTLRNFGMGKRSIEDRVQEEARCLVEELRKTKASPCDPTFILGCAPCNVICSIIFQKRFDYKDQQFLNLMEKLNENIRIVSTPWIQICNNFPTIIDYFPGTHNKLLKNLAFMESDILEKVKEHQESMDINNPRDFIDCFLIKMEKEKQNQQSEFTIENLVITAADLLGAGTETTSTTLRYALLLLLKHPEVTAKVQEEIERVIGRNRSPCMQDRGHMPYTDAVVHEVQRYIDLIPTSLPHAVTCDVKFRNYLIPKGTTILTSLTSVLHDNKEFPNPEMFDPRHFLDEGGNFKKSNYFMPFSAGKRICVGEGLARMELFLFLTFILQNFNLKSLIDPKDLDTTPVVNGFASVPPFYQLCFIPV
Protocol: as §1

VEGFR II (KDR), sequence (P35968 20-1356, species assumed): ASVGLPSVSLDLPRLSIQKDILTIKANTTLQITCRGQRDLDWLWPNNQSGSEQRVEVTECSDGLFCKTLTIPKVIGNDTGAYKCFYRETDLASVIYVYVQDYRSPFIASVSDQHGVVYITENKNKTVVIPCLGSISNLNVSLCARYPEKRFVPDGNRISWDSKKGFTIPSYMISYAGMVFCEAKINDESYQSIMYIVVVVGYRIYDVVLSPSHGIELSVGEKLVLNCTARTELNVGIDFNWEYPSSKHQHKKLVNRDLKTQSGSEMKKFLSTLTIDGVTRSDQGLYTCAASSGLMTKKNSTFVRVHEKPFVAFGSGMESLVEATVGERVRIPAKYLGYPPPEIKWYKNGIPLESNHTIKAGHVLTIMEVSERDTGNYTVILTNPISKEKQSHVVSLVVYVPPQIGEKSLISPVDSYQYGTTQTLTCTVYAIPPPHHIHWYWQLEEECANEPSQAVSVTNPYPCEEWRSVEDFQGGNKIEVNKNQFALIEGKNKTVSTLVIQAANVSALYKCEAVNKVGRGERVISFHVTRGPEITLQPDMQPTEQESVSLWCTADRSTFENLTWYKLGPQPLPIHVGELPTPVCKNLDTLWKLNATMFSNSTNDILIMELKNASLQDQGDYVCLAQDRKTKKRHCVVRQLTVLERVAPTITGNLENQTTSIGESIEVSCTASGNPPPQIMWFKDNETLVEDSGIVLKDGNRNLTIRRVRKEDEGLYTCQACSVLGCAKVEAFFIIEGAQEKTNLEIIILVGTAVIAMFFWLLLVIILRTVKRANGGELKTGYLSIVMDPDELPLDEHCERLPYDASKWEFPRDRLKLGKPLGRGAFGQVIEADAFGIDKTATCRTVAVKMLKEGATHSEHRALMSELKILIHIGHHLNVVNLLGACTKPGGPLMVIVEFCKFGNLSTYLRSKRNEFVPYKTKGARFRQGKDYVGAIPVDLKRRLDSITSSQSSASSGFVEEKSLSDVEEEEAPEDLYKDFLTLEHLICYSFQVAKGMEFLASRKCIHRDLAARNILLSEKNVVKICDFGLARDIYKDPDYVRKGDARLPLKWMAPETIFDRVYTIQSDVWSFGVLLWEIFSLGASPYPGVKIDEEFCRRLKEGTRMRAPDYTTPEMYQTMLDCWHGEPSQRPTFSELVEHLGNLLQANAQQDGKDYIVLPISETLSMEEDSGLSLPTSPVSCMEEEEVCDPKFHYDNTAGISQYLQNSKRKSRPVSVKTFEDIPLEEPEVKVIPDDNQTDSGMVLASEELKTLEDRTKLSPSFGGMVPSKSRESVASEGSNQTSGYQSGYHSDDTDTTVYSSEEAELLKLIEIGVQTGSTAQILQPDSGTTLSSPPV

melting point	IC50 [1]	IC50 [2]	IC50 [3]	IC50 [4]	IC50 [5]	IC50 [6]	Compound
196.2 °C	50 nM						O=C(Nc1cc2ccccc2cn1)c1cccnc1NCc1cc[n+]([O-])cc1 [Example 7]
181 to 184 °C	50 nM						O=C(Nc1cccc(C(F)(F)F)c1)c1ccccc1NCc1cc[n+]([O-])cc1 [Example 4]
	30 nM	> 30000 nM	> 30000 nM	5200 nM	> 30000 nM	3600 nM	O=C(Nc1cc2ccccc2cn1)c1ccccc1NCc1cc[n+]([O-])cc1 [Example 1, N-(Isoquinolin-3-yl)-2-(4-pyridylmethyl)aminobenzoic acid amide-N-oxide]
191.9 °C	200 nM						O=C(Nc1cc2ccccc2cn1)c1ccccc1NCc1ccc[n+]([O-])c1 [Example 2]
	50 nM						O=C(Nc1cccc(C(F)(F)F)c1)c1cccnc1NCc1cc[n+]([O-])cc1 [Example 8]
